Experimental data published in patent US12071624B2, “Antisense oligonucleotide targeting ARL4C molecule, and nucleic acid drug using antisense oligonucleotide” (OSAKA UNIVERSITY, priority 2018, dated 2024).

What was measured:
[1] = tested on: ARL4C mRNA; test: ARL4C mRNA amount by real-time PCR in HCT116 cells; type: cell-based, human; conditions: HCT116 cells transfected at 25 nM
Protocol: (§1) HLE cells, HCT116 cells, and A549 cells were transfected with 25 to 50 nM ASO and 10 to 20 nM siRNA using Lipofectamine 3000 (Invitrogen, Carlsbad, CA, USA) or RNAiMAX (Invitrogen). Transfected cells were used in the experiments 36 to 48 hours after the end of the transfection.
(§2) Cell migration assays and quantitative real-time PCR analyses were performed according to the methods reported by Fujii S et al. (Oncogene 2015; 34: 4834-44).
(§3) HLE cells and HCT116 cells were transfected with the above-described seven types of ARL4C ASOs and the control ASO at 25 nM, and the ARL4C mRNA amounts were measured by real-time PCR; the results thereof are shown in (a) of FIG. 4. […] In order to optimize the effect of these three types of ARL4C ASOs, four bases were added to each of these three types of ARL4C ASOs, whereby ASO-1312, ASO-1450, and ASO-3223 each of which consisted of 19 bases were produced. With these six types of ARL4C ASOs (ASO-1316, ASO-1312, ASO-1454, ASO-1450, ASO-3225, and ASO-3223), the knockdown effect on ARL4C was further studied.

[2] = tested on: ARL4C mRNA; test: ARL4C mRNA amount by real-time PCR in HLE cells; type: cell-based, human
Protocol: as §1, §2, §3
HLE cells were transfected with ARL4C ASOs (ASO-1316, ASO-1312, ASO-1454, ASO-1450, ASO-3225, and ASO-3223) at 25 nM each, and the ARL4C mRNA amounts were measured by real-time PCR; the results are shown in (c) of FIG. 3. In addition, HLE cells were transfected with ARL4C ASOs (ASO-1316, ASO-1312, ASO-3225, and ASO-3223) at 0.5 to 25 nM each, and the ARL4C mRNA amounts were measured by real-time PCR; the results are shown in (b) of FIG. 4.
HLE cells were treated with 10 μM PD184161 or 10 nM CTNNB1 siRNA (siRNA against CTNNB1), and the ARL4C mRNA amount was measured by real-time PCR; the results are shown in (a) of FIG. 5. In addition, HLE cells were treated with 10 nM CTNNB1 siRNA (siRNA against CTNNB1), and the ARL4C mRNA amount was measured by real-time PCR; the results thereof are shown in (a) of FIG. 6. PD184161 is a compound that inhibits MEK without knocking down […].

[3] = tested on: ARL4C mRNA; test: Screening of ARL4C ASO knockdown efficiency by real-time PCR in A549 cells; type: cell-based, human; conditions: screening of 38 types of ARL4C ASOs
Protocol: as §1, §2
First, base sequences of 15-nucleotide ARL4C were selected based on the structure of ARL4C mRNA. From thousands of ARL4C ASO candidates, those that may cause hepatotoxicity were excluded, and 38 types of ARL4C ASOs (those other than ASO-1312, ASO-1450 and ASO-3223 among the ASOs in Table 1) were selected, by high-dimensional structure prediction of ARL4C mRNA. The ASOs used in this test were those in which all of the phosphodiester bonds were substituted with phosphorothioate bonds. Knockdown efficiencies of ARL4C ASOs in A549 cells (lung adenocarcinoma cells) were investigated by screening experiments using real-time PCR. It has been confirmed that the protein abundance of ARL4C in A549 cells is reduced by treatment with ARL4C siRNA. The ARL4C mRNA amounts in A549 cells treated with 38 types of ARL4C ASOs were measured, and the results are shown in (a) of FIG. 3.

[4] = tested on: PIK3CD mRNA; test: PIK3CD mRNA amount by real-time PCR in ARL4C-expressing HepG2 cells; type: cell-based, human; conditions: ARL4C-transduced HepG2 cells, 25 μM SecinH3 or 50 μM NSC23766
[5] = tested on: PIK3CD mRNA; test: PIK3CD mRNA amount by real-time PCR in HLE cells; type: cell-based, human; conditions: HLE cells treated with 25 μM SecinH3
Protocol: as §1, §2
HLE cells were treated with 25 μM SecinH3 (inhibitor of Arf nucleotide-binding site opener (ARNO)) or 50 μM NSC23766 (Rac inhibitor), and the amount of PIK3CD mRNA was measured by real-time PCR; the results are shown in (c) of FIG. 5.
HLE cells were transfected with control ASO, ASO-1316, and ASO-3223 at 25 nM, and the PIK3CD mRNA amount was measured by real-time PCR; the results are shown in (g) of FIG. 5. In addition, an anti-phosphorylated AKT (pAKT S473) antibody and an anti-AKT antibody as probes were caused to act on cell lysates of HLE cells transfected with control ASO, ASO-1316, and ASO-3223; the results are shown in (h) of FIG. 5.

[6] = tested on: HLE cells; test: Cell proliferation assay (CyQUANT NF) in HLE cells; type: cell-based; conditions: HLE cells transfected with siRNA at 20 nM
Protocol: as §1
The cell proliferation assays were performed using the CyQUANT NF Cell Proliferation Assay Kits (Thermo Fisher Scientific), in the way recommended by the manufacturer.
HLE cells were transfected with control ASO, ASO-1316 and ASO-3223 at 25 nM and a proliferation assay was performed; the results of the assay are shown in (e) of FIG. 4.
(§4) HLE cells were transfected with control siRNA and PIK3CD siRNA (siRNA against PIK3CD) at 20 nM, and a proliferation assay was performed; the results are shown in (e) of FIG. 5. In addition, an anti-phosphorylated AKT antibody and an anti-AKT antibody as probes were caused to act on cell lysates of HLE cells transfected with control siRNA and PIK3CD siRNA; the results are shown in FIG. 5 (f). HLE cells were transfected with control siRNA and PIK3CD siRNA (siRNA against PIK3CD) at 20 nM and the PIK3CD mRNA amount was measured by real-time PCR; the results are shown in (c) of FIG. 7.

[7] = tested on: AKT; test: Anti-phosphorylated AKT / anti-AKT probing of HLE cell lysates; type: cell-based; conditions: HLE cells transfected with PIK3CD siRNA
Description: Anti-ARL4C and anti-PIK3CD antibodies were purchased from Abcam (Cambridge, UK) and Santa Cruz Biotechnology (Santa Cruz, CA, USA), respectively. Anti-phosphorylated AKT (S473) antibody, anti-AKT antibody, anti-Ki-67 antibody, and anti-YAP/TAZ were purchased from Cell Signaling Technology (Beverly, MA, USA). PD184161 (MEK1/2 inhibitor) and VivoGlo luciferin were purchased from Sigma-Aldrich (Steinheim, Germany) and Promega (Madison, WI, USA), respectively.
as §4

Compound	ARL4C mRNA amount [1]	ARL4C mRNA amount ([2]; HLE cells transfected at 25 nM)	knockdown efficiency (ARL4C mRNA amount) [3]	PIK3CD mRNA amount [4]	other results
ASO-1454: 15-mer ARL4C ASO of Table 1, SEQ ID NO 14 (antisense NNNACAAATGAANNT; AmNA modifications; Amido-bridged nucleic acid (AmNA); modified_base (1)..(1) n is Adenine having a structure of AmNA (2′,4′- bridged nucleotide in which R is a methyl group); (1)..(3) n is a, c, g, or t; modified_base (2)..(2) n is Guanine having a structure of AmNA (2′,4′- bridged nucleotide in which R is a methyl group); modified_base (3)..(3) n is Guanine having a structure of AmNA (2′,4′- bridged nucleotide in w)	reduced the ARL4C mRNA amount	reduced the ARL4C mRNA amount	high knockdown efficiencies	–	–
O=C(NOCC1CC1)c1cc(Br)c(F)c(F)c1Nc1ccc(I)cc1Cl [PD184161, reference compound]	–	–	–	–	ARL4C mRNA amount ([2]; HLE cells treated with 10 μM PD184161): reduced ARL4C mRNA amount
COc1nc(-c2ccc3c(c2)OCO3)n(-c2ccc(NC(=O)CSc3ccccc3)cc2)n1 [SecinH3, reference compound]	–	–	–	suppressed an increase in the PIK3CD mRNA amount	PIK3CD mRNA amount [5]: reduced the PIK3CD mRNA amount
ASO-3225: 15-mer ARL4C ASO of Table 1, SEQ ID NO 35 (antisense NNNTTACAGTATNNG; AmNA modifications; Amido-bridged nucleic acid (AmNA); modified_base (1)..(1) n is Adenine having a structure of AmNA (2′,4′- bridged nucleotide in which R is a methyl group); (1)..(3) n is a, c, g, or t; modified_base (2)..(2) n is Guanine having a structure of AmNA (2′,4′- bridged nucleotide in which R is a methyl group); modified_base (3)..(3) n is Guanine having a structure of AmNA (2′,4′- bridged nucleotide in w)	reduced the ARL4C mRNA amount	reduced the ARL4C mRNA amount	high knockdown efficiencies	–	–
CCN(CC)CCCC(C)Nc1nc(C)cc(Nc2ccc3nc(C)cc(N)c3c2)n1 (stereo not drawn) [NSC23766]	–	–	–	suppressed an increase in the PIK3CD mRNA amount	–
PIK3CD siRNA: siRNA against PIK3CD, Table 3, SEQ ID NO: 102 and 103 (chain 1 GCGAATACTCTGCCATTAT; chain 2 GCCAACTAACTCTGCAGAT; two separate siRNAs, only sense strands listed, further chemistry not given here) [reference compound]	–	–	–	–	cell proliferation [6]: suppressed cell proliferation; AKT activity (pAKT S473) [7]: reduced AKT activity
